Where two headings read alike, the source gives them in different places.
Legend:
[1] = system: maximal electroshock seizure (MES); details: cited from earlier work
[2] = system: maximal electroshock seizure (MES); details: rats, cited from earlier work; for PI (TD50/ED50) in rat MES test: reference or literature compound
[3] = system: maximal electroshock seizure (MES); details: male, Sprague-Dawley, rat, in vivo, po
Procedure: (§1) The tested compounds were suspended in 0.5% methylcellulose and administered (a) intraperitioneally (ip) to adult male CF no. 1 albino mice (18-25 g) in volume of 0.01 mL/g body weight and (b) orally to adult male Sprague-Dawley albino rats (100-150 g) in volume of 0.04 mL per 10 g of body weight.
(§2) The TD50 was determined by varying the dose of the tested compounds until four points were established between the dose level that induced no signs of minimal motor impairment in any of the animals and the dose at which all the animals were considered impaired. […] The PIs were calculated by dividing the TD50 by the ED50.

[4] = system: maximal electroshock seizure (MES); experiment: Maximal electroshock seizure test (MES), mice, intraperitoneal; assay type: in vivo; details: ip;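 also: adult male CF no. 1 albino mice of 18–25 g, given compound intraperitoneally as a 0.5% methylcellulose suspension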
[5] = system: subcutaneous metrazol (pentylenetetrazol) seizure; details: male, Sprague-Dawley, rat, in vivo, po
Procedure: (§3) The evaluation of the anticonvulsant activity in the maximal electroshock seizure test (MES) and subcutaneous metrazol seizure threshold test (scMet) and the determination of neurotoxicity in the rotorod test, positional sense test, and others were performed according to the protocols described in White, H. S., Woodhead J. H., Wilcox K. S., Stables J. P., Kupferberg H. J., Wolf H. H., Discovery and Preclinical Development of Antiepileptic Drugs; 5th ed.; Lippincott Williams &Wilkins: New york, 2002; 36-48.
(§4) The tested compounds were suspended in 0.5% methylcellulose and administered (a) intraperitioneally (ip) to adult male CF no. 1 albino mice (18-25 g) in volume of 0.01 mL/g body weight and (b) orally to adult male Sprague-Dawley albino rats (100-150 g) in volume of 0.04 mL per 10 g of body weight. The pentylenetetrazol solution at convulsing dose was prepared by sufficient dissolution of pentylenetetrazol in 0.9% saline to make 0.85% solution for administration to mice and a 2.82% solution for administration to rats.
as §2

in vivo = details: male, Sprague-Dawley, rat, po
Procedure: as §1, §2

[6] = system: subcutaneous metrazol (pentylenetetrazol) seizure; experiment: animal or person; details: Rattus norvegicus, po, read-out: scMet ED50
Procedure: as §3, §4, §2

[7] = system: maximal electroshock seizure (MES); experiment: Maximal electroshock seizure test (MES), rats, oral; details: for responders at 30 mg/kg / ED50: Rattus norvegicus, po; for responders at 30 mg/kg: read-out: Anti-MES activity (number of animals protected/number of animals tested); for ED50: read-out: MES ED50, rats dosed orally;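 as to all read-outs here: adult male Sprague-Dawley rats received test compounds by mouth as a suspension in 0.5% methylcellulose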
Procedure: as §1, §2

[8] = system: subcutaneous metrazol (pentylenetetrazol) seizure; experiment: Subcutaneous metrazol seizure threshold test (scMet), mice, intraperitoneal; assay type: in vivo; details: ip;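 also: adult male CF no. 1 albino mice weighing 18-25 g, dosed intraperitoneally with compounds suspended in 0.5% methylcellulose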
rats = experiment: Neurotoxicity, median neurotoxic dose (TD50), rats, oral; details: rats dosed orally
Procedure: as §1, §2

[9] = system: subcutaneous metrazol (pentylenetetrazol) seizure; details: reference AED; species not stated; cited from earlier work
[10] = 30 mg/kg, 0.5 h after administration
[11] = 30 mg/kg, 4 h after administration
[12] = 100 mg/kg, 0.5 h after administration
[13] = 100 mg/kg, 4 h after administration
[14] = 300 mg/kg, 0.5 h after administration
[15] = 300 mg/kg, 4 h after administration
[16] = interval in parentheses = 95% confidence interval

Compound: CC1(C)C(C(=O)Nc2ccc(S(N)(=O)=O)cc2)C1(C)C [Compound 7, 4-(2,2,3,3-tetramethylcyclopropanecarboxamido)-benzenesulfon amide]
- MES test ED50 ([1]; MES test in mice and rats, previously synthesized by the inventors): 26 mg/kg

Compound: CCCC(CCC)C(=O)Nc1ccc(S(N)(=O)=O)cc1 [Compound 6, 4-(valproylamido)-benzenesulfonamide]
- mice-MES test ED50 ([1]; mice, previous studies): 21 mg/kg

Compound: CC1(C)C(C(=O)Nc2nnc(S(N)(=O)=O)s2)C1(C)C [5-(2,2,3,3-tetramethylcyclopropanecarboxamide)-1,3,4-thiamidazole-2-sulfonamide]
- PI (TD50/ED50) in rat MES test [2]: above 50

Compound: CCCC(C(=O)Nc1ccc(S(N)(=O)=O)cc1)C(C)C (centres unmarked) [Compound 18, 2-Isopropyl-N-(4-sulfamoyl-phenyl)-pentanamide]
- PI, protective index (PI = TD50/ED50) in the MES test [3]: >12.0
- MES (number of animals protected/number of animals tested) [4, 10]: 0/1
- MES (number of animals protected/number of animals tested) [4, 11]: 0/1
- MES (number of animals protected/number of animals tested) [4, 12]: 0/3
- MES (number of animals protected/number of animals tested) [4, 13]: 2/3
- MES (number of animals protected/number of animals tested) [4, 14]: 1/1
- MES (number of animals protected/number of animals tested) [4, 15]: 1/1
- melting point: 217 to 219 °C
- PI, protective index (PI = TD50/ED50) in the scMet test [5]: >2
- TD50 (in vivo): > 500 mg/kg
- ED50 [6]: > 250 mg/kg
- responders at 30 mg/kg ([7]; 0.5 h): 0%
- responders at 30 mg/kg ([7]; 1 h): 100%
- responders at 30 mg/kg ([7]; 2 h): 75%
- responders at 30 mg/kg ([7]; 4 h): 50%
- responders at 30 mg/kg ([7]; […]): 0%
- ED50 [7, 16]: 41.5 mg/kg
- scMet (number of animals protected/number of animals tested) [8, 10]: 0/1 0/1 0/1
- scMet (number of animals protected/number of animals tested) [8, 11]: 0/1 0/1 0/1
- scMet (number of animals protected/number of animals tested) [8, 12]: 0/1 0/1 0/1
- scMet (number of animals protected/number of animals tested) [8, 13]: 0/1 0/1 0/1
- scMet (number of animals protected/number of animals tested) [8, 14]: 0/1 0/1 0/1
- scMet (number of animals protected/number of animals tested) [8, 15]: 0/1 0/1 0/1

Compound: CCCC(CCC)C(=O)O [VPA, 2-propylpentanoic acid]
- TD50 (neurotoxicity) (rats): 784 mg/kg

Compound: CC(C)(C)C(=O)Nc1ccc(S(N)(=O)=O)cc1 [Compound 9, 2,2-Dimethyl-N-(4-sulfamoyl-phenyl)-propionamide]
- PI, protective index (PI = TD50/ED50) in the MES test [3]: >11.8
- MES (number of animals protected/number of animals tested) [4, 10]: 0/1
- MES (number of animals protected/number of animals tested) [4, 11]: 0/1
- MES (number of animals protected/number of animals tested) [4, 12]: 1/3
- MES (number of animals protected/number of animals tested) [4, 13]: 2/3
- MES (number of animals protected/number of animals tested) [4, 14]: 1/1
- MES (number of animals protected/number of animals tested) [4, 15]: 1/1
- melting point: 228 to 229 °C
- TD50 (in vivo): > 500 mg/kg
- responders at 30 mg/kg ([7]; 0.5 h): 0%
- responders at 30 mg/kg ([7]; 1 h): 75%
- responders at 30 mg/kg ([7]; 2 h): 50%
- responders at 30 mg/kg ([7]; 4 h): 100%
- responders at 30 mg/kg ([7]; […]): 0%
- ED50 [7, 16]: 42 mg/kg
- MES ED50 ([7]; rats dosed orally, interval in parentheses = 95% confidence interval): 42.2 (22.9-86.4) mg/kg
- scMet (number of animals protected/number of animals tested) [8, 10]: 0/1 0/1 0/1
- scMet (number of animals protected/number of animals tested) [8, 11]: 0/1 0/1 0/1
- scMet (number of animals protected/number of animals tested) [8, 12]: 0/1 0/1 0/1
- scMet (number of animals protected/number of animals tested) [8, 13]: 0/1 0/1 0/1
- scMet (number of animals protected/number of animals tested) [8, 14]: 0/1 0/1 0/1
- scMet (number of animals protected/number of animals tested) [8, 15]: 0/1 0/1 0/1

Compound: CCCCC(CC)C(=O)Nc1ccc(S(N)(=O)=O)cc1 (centres unmarked) [Compound 25, 2-Ethyl-N-(4-sulfamoyl-phenyl)-hexanamide]
- PI, protective index (PI = TD50/ED50) in the MES test [3]: >21.0
- MES (number of animals protected/number of animals tested) [4, 10]: 0/1
- MES (number of animals protected/number of animals tested) [4, 11]: 0/1
- MES (number of animals protected/number of animals tested) [4, 12]: 3/3
- MES (number of animals protected/number of animals tested) [4, 13]: 3/3
- MES (number of animals protected/number of animals tested) [4, 14]: 1/1
- MES (number of animals protected/number of animals tested) [4, 15]: 1/1
- melting point: 188 to 190 °C
- PI, protective index (PI = TD50/ED50) in the scMet test [5]: >2
- TD50 (in vivo): > 500 mg/kg
- ED50 [6]: > 250 mg/kg
- responders at 30 mg/kg ([7]; 0.5 h): 0%
- responders at 30 mg/kg ([7]; 1 h): 100%
- responders at 30 mg/kg ([7]; 2 h): 75%
- responders at 30 mg/kg ([7]; 4 h): 100%
- responders at 30 mg/kg ([7]; […]): 0%
- ED50 [7, 16]: 23.9 mg/kg
- scMet (number of animals protected/number of animals tested) [8, 10]: 0/1
- scMet (number of animals protected/number of animals tested) [8, 11]: 0/1 0/1 0/1
- scMet (number of animals protected/number of animals tested) [8, 12]: 2/5
- scMet (number of animals protected/number of animals tested) [8, 13]: 0/1 0/1 0/1
- scMet (number of animals protected/number of animals tested) [8, 14]: 3/5
- scMet (number of animals protected/number of animals tested) [8, 15]: 0/1 0/1 0/1

Compound: CCCC(C)C(=O)Nc1ccc(S(N)(=O)=O)cc1 (centres unmarked) [Compound 16, 2-Methyl-N-(4-sulfamoyl-phenyl)-pentanamide]
- PI, protective index (PI = TD50/ED50) in the MES test [3]: >46.3
- MES (number of animals protected/number of animals tested) [4, 10]: 0/1
- MES (number of animals protected/number of animals tested) [4, 11]: 0/1
- MES (number of animals protected/number of animals tested) [4, 12]: 0/3
- MES (number of animals protected/number of animals tested) [4, 13]: 2/3
- MES (number of animals protected/number of animals tested) [4, 14]: 0/1
- MES (number of animals protected/number of animals tested) [4, 15]: 1/1
- PI, protective index (PI = TD50/ED50) in the scMet test [5]: >2
- TD50 (in vivo): > 500 mg/kg
- ED50 [6]: > 250 mg/kg
- responders at 30 mg/kg ([7]; 0.5 h): 25%
- responders at 30 mg/kg ([7]; 1 h): 100%
- responders at 30 mg/kg ([7]; 2 h): 100%
- responders at 30 mg/kg ([7]; 4 h): 100%
- responders at 30 mg/kg ([7]; […]): 25%
- ED50 [7, 16]: ~10 mg/kg
- scMet (number of animals protected/number of animals tested) [8, 10]: 0/1 0/1 0/1
- scMet (number of animals protected/number of animals tested) [8, 11]: 0/1 0/1 0/1
- scMet (number of animals protected/number of animals tested) [8, 12]: 0/1 0/1 0/1
- scMet (number of animals protected/number of animals tested) [8, 13]: 0/1 0/1 0/1
- scMet (number of animals protected/number of animals tested) [8, 14]: 0/1 0/1 0/1
- scMet (number of animals protected/number of animals tested) [8, 15]: 0/1 0/1 0/1

Compound: NS(=O)(=O)Cc1noc2ccccc12 [Zonisamide]
- Rat-MES test ED50 ([2]; reference AED): 21 mg/kg
- PI (TD50/ED50) in rat MES test [2]: 9.1
- anticonvulsant activity in the scMet test [9]: does not display anticonvulsant activity

Compound: NS(=O)(=O)c1ccc(NC(=O)Cc2ccccc2)cc1 [Compound 30, 2-Phenyl-N-(4-sulfamoyl-phenyl)-acetamide]
- PI, protective index (PI = TD50/ED50) in the MES test [3]: >31.0
- MES (number of animals protected/number of animals tested) [4, 10]: 0/1
- MES (number of animals protected/number of animals tested) [4, 11]: 0/1
- MES (number of animals protected/number of animals tested) [4, 12]: 3/3
- MES (number of animals protected/number of animals tested) [4, 13]: 3/3
- MES (number of animals protected/number of animals tested) [4, 14]: 1/1
- MES (number of animals protected/number of animals tested) [4, 15]: 1/1
- PI, protective index (PI = TD50/ED50) in the scMet test [5]: >2
- TD50 (in vivo): > 500 mg/kg
- ED50 [6]: > 250 mg/kg
- responders at 30 mg/kg ([7]; 0.5 h): 0%
- responders at 30 mg/kg ([7]; 1 h): 100%
- responders at 30 mg/kg ([7]; 2 h): 75%
- responders at 30 mg/kg ([7]; 4 h): 100%
- responders at 30 mg/kg ([7]; […]): 0%
- ED50 [7, 16]: 16.1 mg/kg
- scMet (number of animals protected/number of animals tested) [8, 10]: 0/1 0/1 0/1
- scMet (number of animals protected/number of animals tested) [8, 11]: 0/1 0/1 0/1
- scMet (number of animals protected/number of animals tested) [8, 12]: 0/1 0/1 0/1
- scMet (number of animals protected/number of animals tested) [8, 13]: 0/1 0/1 0/1
- scMet (number of animals protected/number of animals tested) [8, 14]: 0/1 0/1 0/1
- scMet (number of animals protected/number of animals tested) [8, 15]: 0/1 0/1 0/1
